Our source for the IC50 and PHD2/PHD1 values is patent US9409892B2, “4-hydroxy-isoquinoline compounds as HIF hydroxylase inhibitors” (FIBROGEN, INC., priority 2012, dated 2016).

Read-outs that look alike come from different tables or passages of the source.

In assay [1] the target is PHD1 (EGLN2) (Homo sapiens (Human), UniProt Q96KS0). Nature of the assay: HIF-PH assay (14CO2 capture), PHD1 enzyme inhibition. The following applies: for IC50: read-out: IC50 (μM) PHD1. The class given is biochemical. From the text: (§1) Ketoglutaric acid α-[1-^14C]-sodium salt, alpha-ketoglutaric acid sodium salt, and HPLC purified peptide may be obtained from commercial sources, e.g., Perkin-Elmer (Wellesley Mass.), Sigma-Aldrich, and SynPep Corp. (Dublin Calif.), respectively. Peptides for use in the assay may be fragments of HIFα as described above or as disclosed in International Publication WO 2005/118836, incorporated by reference herein. HIF-pH, e.g., PHD1 (EGLN2) or PHD2 (EGLN1), can be expressed in, e.g., insect Hi5 cells, and partially purified, e.g., through a SP ion exchange chromatography column. Enzyme activity is determined by capturing ^14CO2 using an assay described by Kivirikko and Myllyla (1982, Methods Enzymol. 82:245-304). Assay reactions contain 50 mM HEPES (pH 7.4), 100 μM α-ketoglutaric acid sodium salt, 0.30 mCi/mL ketoglutaric acid α-[1-^14C]-sodium salt, 40 μM FeSO4, 1 mM ascorbate, 1541.8 units/mL Catalase, with or without 50 μM peptide substrate and various concentrations of compound of the invention. Reactions are initiated by addition of HIF-PH enzyme.
(§2) The peptide-dependent percent turnover is calculated by subtracting percent turnover in the absence of peptide from percent turnover in the presence of substrate peptide. Percent inhibition and IC50 are calculated using peptide-dependent percent turnover at given inhibitor concentrations. Calculation of IC50 values for each inhibitor is conducted using GraFit software (Erithacus Software Ltd., Surrey UK).
(§3) The PHD2/PHD1 is the ratio of the IC50 of the compound for each enzyme.

The target in assay [2] is PHD2 (EGLN1) (Homo sapiens (Human), UniProt Q9GZT9). Nature of the assay: HIF-PH assay (14CO2 capture), PHD2 enzyme inhibition. The assay is classed as biochemical. The following applies: Table 1; individual measurement; read-out: IC50 (μM) PHD2.
Description: as §1, §2, §3

Where [3] appears, read: Table 1, individual measurement.
[4] abbreviates: Table 1, ratio of the IC50 of the compound for each enzyme.
[5] abbreviates: Table 2 comparative data, IC50 PHD2/IC50 PHD1.

Chain of PHD2 (EGLN1) (Q9GZT9 whole entry): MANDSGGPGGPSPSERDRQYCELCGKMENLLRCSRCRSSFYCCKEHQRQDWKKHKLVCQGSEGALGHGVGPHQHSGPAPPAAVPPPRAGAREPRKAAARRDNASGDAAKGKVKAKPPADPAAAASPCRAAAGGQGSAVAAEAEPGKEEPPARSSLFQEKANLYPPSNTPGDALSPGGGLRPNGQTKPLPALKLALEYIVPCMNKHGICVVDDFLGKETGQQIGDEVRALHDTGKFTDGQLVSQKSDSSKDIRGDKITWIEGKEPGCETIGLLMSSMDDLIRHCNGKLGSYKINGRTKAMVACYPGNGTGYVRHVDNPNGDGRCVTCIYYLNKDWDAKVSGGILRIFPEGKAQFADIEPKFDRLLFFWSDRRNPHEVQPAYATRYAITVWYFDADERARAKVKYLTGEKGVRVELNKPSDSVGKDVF
Chain of PHD1 (EGLN2) (Q96KS0 whole entry, the tested form may be a part): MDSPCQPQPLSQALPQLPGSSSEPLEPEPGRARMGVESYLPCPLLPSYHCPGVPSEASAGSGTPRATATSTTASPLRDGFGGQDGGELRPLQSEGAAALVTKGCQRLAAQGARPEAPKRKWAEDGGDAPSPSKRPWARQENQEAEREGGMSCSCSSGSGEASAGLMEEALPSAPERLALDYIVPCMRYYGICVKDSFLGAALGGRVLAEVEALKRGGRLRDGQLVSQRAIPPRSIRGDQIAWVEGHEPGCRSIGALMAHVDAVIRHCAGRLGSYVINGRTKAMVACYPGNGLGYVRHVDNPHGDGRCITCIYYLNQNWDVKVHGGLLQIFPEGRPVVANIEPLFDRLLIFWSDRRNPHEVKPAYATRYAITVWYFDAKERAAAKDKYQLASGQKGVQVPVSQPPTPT

In general, IC50 refers to the midpoint of a concentration-inhibition curve. Consider `CC(C)(CNC(=O)c1nc(C#N)c2cc(Oc3cccc(Cl)c3)ccc2c1O)C(=O)O` [Compound 39, 3-{[7-(3-Chloro-phenoxy)-1-cyano-4-hydroxy-isoquinoline-3-carbonyl]-amino}-2,2-dimethyl-propionic acid], for which the IC50 was 0.18 µM in assay [1] (setting [3]) and 1.97 µM in assay [2]. In addition, the PHD2/PHD1 in assay [1] (setting [4]) was 11.

Regarding `O=C(NCC1(C(=O)O)CCC1)c1ncc2cc(Oc3ccccc3)ccc2c1O` [Compound 13, 1-{[(4-Hydroxy-7-phenoxy-isoquinoline-3-carbonyl)-amino]-methyl}-cyclobutanecarboxylic acid], the IC50 in assay [1] (setting [3]) worked out at 5.51 µM; in assay [2], 40.8 µM. Further, the PHD2/PHD1 in assay [1] (setting [4]) is recorded as 7.

As for `CC(C)(C)OC(=O)N[C@@H](CNC(=O)c1nc(C#N)c2cc(Oc3ccccc3)ccc2c1O)C(=O)O` [Compound 85, 2-(S)-tert-Butoxycarbonylamino-3-[(1-cyano-4-hydroxy-7-phenoxy-isoquinoline-3-carbonyl)-amino]-propionic acid], the IC50 turned out to be 19.1 µM in assay [1] (setting [3]) and 112 µM in assay [2]. Further, in assay [1] (setting [4]), the PHD2/PHD1 is 6.

With `COC(=O)N[C@H](CCNC(=O)c1nc(C#N)c2cc(Oc3ccccc3)ccc2c1O)C(=O)O` [Compound 53, (R)-4-(1-Cyano-4-hydroxy-7-phenoxyisoquinoline-3-carboxamido)-2-(methoxycarbonylamino)butanoic acid], the IC50 came to 0.24 µM in assay [1] (setting [3]) and 1.4 µM in assay [2]. Also, the PHD2/PHD1 in assay [1] (setting [4]) was determined as 5.8.

As for `N#Cc1nc(C(=O)NCC(C(=O)O)c2ccccc2F)c(O)c2ccc(Oc3ccccc3)cc12` (centres unmarked) [Compound 182, 3-[(1-Cyano-4-hydroxy-7-phenoxy-isoquinoline-3-carbonyl)-amino]-2-(2-fluoro-phenyl)-propionic acid], the IC50 turned out to be 1.81 µM in assay [1] (setting [3]) and 11.9 µM in assay [2]. Besides, the PHD2/PHD1 in assay [1] (setting [4]) was 7.

As to `CC(C)(CCC(=O)O)NC(=O)c1nc(C#N)c2cc(Oc3ccccc3)ccc2c1O` [Compound 46, 4-(1-Cyano-4-hydroxy-7-phenoxyisoquinoline-3-carboxamido)-4-methylpentanoic acid], the IC50 in assay [1] (setting [3]) is 0.94 µM; in assay [2], 20.8 µM. For the same compound, the PHD2/PHD1 in assay [1] (setting [4]) came to 22.

Take `O=C(O)CCCNC(=O)c1ncc2cc(NC(=O)Nc3ccccc3)ccc2c1O` [Compound 119, 4-{[4-Hydroxy-7-(3-phenyl-ureido)-isoquinoline-3-carbonyl]-amino}-butyric acid]: the IC50 in assay [1] (setting [3]) turned out to be 12.6 µM; in assay [2], 72.3 µM. The PHD2/PHD1 in assay [1] (setting [4]) came to 6.

Turning to `N#Cc1nc(C(=O)NCC2(CC(=O)O)CCCCC2)c(O)c2ccc(Oc3ccccc3)cc12` [Compound 36, (1-{[(1-Cyano-4-hydroxy-7-phenoxy-isoquinoline-3-carbonyl)-amino]-methyl}-cyclohexyl)-acetic acid], the figures for the IC50 in assay [1] (setting [3]) and in assay [2] were 5.93 µM and 56.6 µM, respectively. In addition, the PHD2/PHD1 in assay [1] (setting [4]) amounted to 10.

As to `O=C(O)CCNC(=O)c1ncc2cc(Oc3cccnc3)ccc2c1O` [Compound 24, 3-{[4-Hydroxy-7-(pyridin-3-yloxy)-isoquinoline-3-carbonyl]-amino}-propionic acid], the IC50 in assay [1] (setting [3]) is 2.31 µM; in assay [2], 23.3 µM. In addition, the PHD2/PHD1 in assay [1] (setting [4]) and in assay [1] (setting [5]) was 10 in each case.

For the compound `Cc1cccc(C)c1Oc1ccc2c(C#N)nc(C(=O)NCCCC(=O)O)c(O)c2c1` [Compound 110, 4-{[1-Cyano-6-(2,6-dimethyl-phenoxy)-4-hydroxy-isoquinoline-3-carbonyl]-amino}-butyric acid], the IC50 in assay [1] (setting [3]) was found to be 3.63 µM; in assay [2], 21.3 µM. Further, the PHD2/PHD1 in assay [1] (setting [4]) was 6.

Consider `CC(C)(CNC(=O)c1ncc2cc(Oc3ccc(Cl)c(F)c3)ccc2c1O)C(=O)O` [Compound 23, 3-{[7-(4-Chloro-3-fluoro-phenoxy)-4-hydroxy-isoquinoline-3-carbonyl]-amino}-2,2-dimethyl-propionic acid], for which the IC50 in assay [1] (setting [3]) is 2.77 µM; in assay [2], 12.7 µM. The PHD2/PHD1 in assay [1] (setting [4]) turned out to be 5.

Take `CC(C)(CNC(=O)c1nc(C#N)c2cc(Oc3ccccc3F)ccc2c1O)C(=O)O` [Compound 41, 3{-[1-Cyano-7-(2-fluoro-phenoxy)-4-hydroxy-isoquinoline-3-carbonyl]-amino}-2,2-dimethyl-propionic acid]: the IC50 was 0.55 µM in assay [1] (setting [3]) and 9.56 µM in assay [2]. Further, the PHD2/PHD1 in assay [1] (setting [4]) worked out at 17.

With `N#Cc1nc(C(=O)NC(CC(=O)O)c2ccccc2)c(O)c2ccc(Oc3ccccc3)cc12` (centres unmarked) [Compound 91, 3-[(1-Cyano-4-hydroxy-7-phenoxy-isoquinoline-3-carbonyl)-amino]-3-phenyl-propionic acid], the IC50 in assay [1] (setting [3]) was 1.91 µM; in assay [2], 11.3 µM. For the same compound, the PHD2/PHD1 in assay [1] (setting [4]) was 6.

Regarding `O=C(O)CCCNC(=O)c1ncc2cc(NC(=O)Nc3ccc(F)cc3)ccc2c1O` [Compound 142, 4-([7-[3-(4-Fluoro-phenyl)-ureido]-4-hydroxy-isoquinoline-3-carbonyl]-amino)-butyric acid], the IC50 in assay [1] (setting [3]) was found to be 4.12 µM; in assay [2], 56.4 µM. In assay [1] (setting [4]), the PHD2/PHD1 is listed as 14.

Take `CC(CC(=O)O)NC(=O)c1nc(C#N)c2cc(Oc3ccccc3)ccc2c1O` (centres unmarked) [Compound 11, 3-[(1-Cyano-4-hydroxy-7-phenoxy-isoquinoline-3-carbonyl)-amino]butyric acid]: the IC50 in assay [1] (setting [3]) is 1.37 µM; in assay [2], 56.6 µM. Besides, the PHD2/PHD1 in assay [1] (setting [4]) and in assay [1] (setting [5]) was 41 throughout.

For `CC(C)(CNC(=O)c1nc(C#N)c2cc(Oc3ccc(F)cc3)ccc2c1O)C(=O)O` [Compound 101, 3{-[1-Cyano-7-(4-fluoro-phenoxy)-4-hydroxy-isoquinoline-3-carbonyl]-amino}-2,2-dimethyl-propionic acid], the IC50 in assay [1] (setting [3]) was 0.41 µM; in assay [2], 4.65 µM. For the same compound, in assay [1] (setting [4]), the PHD2/PHD1 turned out to be 11.

On to `CC(C)C(CC(=O)O)NC(=O)c1nc(C#N)c2cc(Oc3ccccc3)ccc2c1O` (centres unmarked) [Compound 61, 3-[(1-Cyano-4-hydroxy-7-phenoxy-isoquinoline-3-carbonyl)-amino]-4-methyl-pentanoic acid], for which, in assay [1], the PHD2/PHD1 is on record as 6 and the half-maximal inhibitory concentration (IC50) was 33.3 µM. Besides, the IC50 in assay [2] is more than 200 µM.

Turning to `O=C(O)CCCNC(=O)c1ncc2cc(NC(=O)NC3CCCCC3)ccc2c1O` [Compound 131, 4-{[7-(3-Cyclohexyl-ureido)-4-hydroxy-isoquinoline-3-carbonyl]-amino}-butyric acid], the half-inhibitory concentration (IC50) is 3.16 µM in assay [1] (setting [3]) and 77.6 µM in assay [2]. In addition, the PHD2/PHD1 in assay [1] (setting [4]) came out at 25.

For the compound `C[C@H](CC(=O)O)NC(=O)c1nc(C#N)c2cc(Oc3ccccc3)ccc2c1O` [Compound 64, 3-(R)-[(1-Cyano-4-hydroxy-7-phenoxy-isoquinoline-3-carbonyl)-amino]-butyric acid], the values for the IC50 in assay [1] (setting [3]) and in assay [2] were 0.93 µM and 12.6 µM, respectively. The PHD2/PHD1 in assay [1] (setting [4]) came out at 14.

As for `N#Cc1nc(C(=O)NCC2(C(=O)O)CCC2)c(O)c2ccc(Oc3ccccc3)cc12` [Compound 14, 1-{[(1-Cyano-4-hydroxy-7-phenoxy-isoquinoline-3-carbonyl)-amino]-methyl}-cyclobutanecarboxylic acid], the IC50 was found to be 0.31 µM in assay [1] (setting [3]) and 3.52 µM in assay [2]. In addition, the PHD2/PHD1 in assay [1] (setting [4]) is listed as 11.
